Entries after “also recorded” stand apart in the source; their conditions may differ.
Key:
Type in all cases: cell-based, human
[1] = test system: HUVECs; assay: Dil-ox-LDL uptake by HUVECs (flow cytometry); conditions: for effect on ox-LDL uptake by HUVECs (in words): 200 nM compound; for reduction of the uptake of ox-LDL by HUVECs: 200 nM concentration
Experimental: FIG. 3A, FIG. 3B, FIG. 3C and FIG. 3D depict the inhibitory effect of the lead compounds on Dil-ox-LDL uptake by HUVECs and CHO cells (measured by flow cytometry) and the effect of the lead compounds on ox-LDL-induced LOX-1 mRNA and protein expression. (FIG. 3A) (Upper Panel) Flow cytometry measurements using HUVECs in the presence of the five lead compounds (Mol-1-Mol-5), each a at 200 nM concentration. (Lower Panel) The percentage of internalized ox-LDL. Graphs show data as mean (±SD); n=4. *P<0.01 or <0.05 vs. control. (FIG. 3B) IC50 value for Mol-5. IC50 value (in nM) is based on inhibition of Dil-ox-LDL uptake in CHO cells overexpressing human LOX-1. Graphs show data as mean (±SD); n=5. *P<0.01 or <0.05 vs. control. (FIG. 3C) Western blotting assay showing LOX-1 protein expression in HUVECs following incubation with 200 nM Mol-1 to Mol-5 for 30 min, and subsequently exposure to 5 μg/mL ox-LDL for 6 hours. (FIG. 3D) The variation of LOX-1 mRNA expression levels at different concentrations of the compounds following exposure of HUVECs to 5 μg/mL ox-LDL. The concentrations are indicated on the X-axis and the LOX-1 mRNA levels are shown on the Y-axis. The plots for all the five molecules are shown in separate colors. Graphs show data as mean (±SD); n=3. *P<0.01 vs. control; #P<0.01 vs. ox-LDL group.
For further characterization, human endothelial cells and fluorescently-labeled Dil-ox-LDL were used for measuring initiation of atherogenic process based on interaction of vascular wall with ox-LDL. Ox-LDL uptake by human umbilical vein endothelial cells (HUVECs) was measured after exposure to 200 nM of each compound using flow cytometry. […] The dose response to modulation of ox-LDL uptake by Mol-5 (0, 20, 200 and 2000 nM) was also measured in CHO cells overexpressing human LOX-1. […] A second dose response curve was conducted to narrow in on the effect of lower concentrations of Mol-5 on ox-LDL uptake (FIG. 6A). Using this information the EC50 was estimated to be […] (FIG. 6B).
The primary HUVECs were purchased from ATCC (Manassas, Va.) and cultured in vascular cell basal medium with supplements (including 10 mL fetal bovine serum, 10 mM L-glutamine, 0.5 tg hydrocortisone hem isuccinate, 25 tg ascorbic acid, 2.5 ng rhVEGF, 2.5 ng rhEGF, 2.5 ng rh FGF, 7.5 ng rhIGF-1 and 0.375 units heparin sulfate). Cells from passages 3 and 4 were used in this study.
HUVECs were plated into 6-well plates and cultured until the cells reached 70% confluence. The cells were exposed to […] Dil-ox-LDL for 30 min after treatment with 200 nM of each of 5 molecules for 30 min, and then washed with PBS for 3 times. After washing, the cells were digested with trypsin and washed with PBS, and suspended in 400 tL PBS, and analyzed with a flow-cytometer (Becton Dickinson, Mountain View, Calif.). For further confirm the inhibitory effects of Mol-5 on Dil-ox-LDL uptake, we also measured Dil-ox-LDL uptake by CHO cells after exposure to […] Mol-5 for 30 min. The CHO cells were stably transfected with human LOX-1 cDNA.

[2] = test system: adhesion of monocytes to HUVECs; assay: Monocyte adhesion assay on HUVECs; conditions: 200 nM; for effect on monocyte adhesion to HUVECs (in words): ox-LDL treated
Experimental: FIG. 4A, FIG. 4B, FIG. 4C, FIG. 4D and FIG. 4E depict the effect of lead molecules on ox-LDL-induced the activation of MAPKs in HUVECs, VCAM-1 expression and monocyte adhesion onto HUVECs. […] (FIG. 4B) Western blot analyses showing phospho-p38MAPK expression in HUVECs following exposure to 200 nM of each compound for 30 min, and subsequently exposed to 5 μg/mL ox-LDL for 6 hours. […] (FIG. 4D) The variation of VCAM-1 mRNA expression levels with different concentrations of the led compounds. The concentrations are indicated on the X-axis and the VCAM-1 mRNA levels are shown on the Y-axis. The plots for all five molecules are shown in separate colors. […] Graphs show data as mean (±SD); n=3 (for Western blot and PCR assays) or n=20 (for monocyte adhesion assay). *P<0.01 vs. control; #P<0.01 or <0.05 vs. ox-LDL group.
The ox-LDL-induced expression of adhesion molecules, such as VCAM-1, facilitates the adhesion of inflammatory cells, such as monocytes.
Human monocytes were isolated from blood from the healthy donors and cultured in DMEM supplemented with 10% FBS. HUVECs were plated into 6-well plates. When the cells reached 70-80% confluence, they were treated with 200 nM of each of 5 molecules for 30 min, and subsequently exposed to […] ox-LDL for 6 h. After washing with PBS, the medium was replaced, and then monocytes ([…]) were added to each well (4 wells/group) onto HUVECs. Thirty minutes later, the medium containing monocytes were aspired and the unattached monocytes were carefully washed out with PBS. Five fields of each well were randomly captured under a microscope. The number of adherent monocyte was counted and averaged.

[3] = test system: VCAM-1 mRNA; assay: ox-LDL-induced VCAM-1 mRNA expression in HUVECs (q-PCR); conditions: 5 μg/mL ox-LDL for 6 hrs
Experimental: FIG. 4A, FIG. 4B, FIG. 4C, FIG. 4D and FIG. 4E depict the effect of lead molecules on ox-LDL-induced the activation of MAPKs in HUVECs, VCAM-1 expression and monocyte adhesion onto HUVECs. […] (FIG. 4B) Western blot analyses showing phospho-p38MAPK expression in HUVECs following exposure to 200 nM of each compound for 30 min, and subsequently exposed to 5 μg/mL ox-LDL for 6 hours. […] (FIG. 4D) The variation of VCAM-1 mRNA expression levels with different concentrations of the led compounds. The concentrations are indicated on the X-axis and the VCAM-1 mRNA levels are shown on the Y-axis. The plots for all five molecules are shown in separate colors. […]
It is known that the activation of LOX-1 by ox-LDL in endothelial cells stimulates the expression of leukocyte adhesion molecules^26. In this study, VCAM-1 expression in HUVECs in the presence of 5 μg/ml ox-LDL was measured. […] VCAM-1 mRNA expression in HUVECs exposed to 5 μg/mL ox-LDL for 6 hrs was also measured.
HUVECs were plated into 12-well plates, and treated with 0, 20, 200 and 2000 nM of each of 5 molecules […] for 30 min, and subsequently exposed to […] ox-LDL for 6 h at 37° C. […] Data was analyzed by using MX3000P software. Relative mRNA expression was quantified using the comparative threshold cycle (Ct) method. […]

## CCOCCCNC(=O)CCN1C(=O)COc2ccccc21 [Mol-1]
[1]
  effect on ox-LDL uptake by HUVECs (in words): moderate inhibitory effect
  reduction of the uptake of ox-LDL by HUVECs: about 35%
[2]
  reduction of monocyte adhesion: 25%
  effect on monocyte adhesion to HUVECs (in words): decreased the number of monocytes adherent to HUVECs; also recorded: markedly inhibited

## CC(C)(C)C(=O)NCCc1nc2ccccc2n1Cc1ccccc1F [Mol-2]
[1]
  effect on ox-LDL uptake by HUVECs (in words): no significant effect

## CCCn1c(CCNC(=O)CCCO)nc2ccccc21 [Mol-4]
[1]
  effect on ox-LDL uptake by HUVECs (in words): significantly and potently inhibited
  reduction of the uptake of ox-LDL by HUVECs: 65%
[3]
  effect on ox-LDL-mediated VCAM-1 mRNA upregulation: significantly reduced; also recorded: significantly inhibited
[2]
  reduction of monocyte adhesion: 30%
  effect on monocyte adhesion to HUVECs (in words): decreased the number of monocytes adherent to HUVECs; also recorded: markedly inhibited

## Cc1cc(C)n(CC(O)COc2ccccc2)n1 (stereo not drawn) [Mol-5, 1-(3,5-dimethyl-1H-pyrazol-1-yl)-3-phenoxypropan-2-ol]
[1]
  effect on ox-LDL uptake by HUVECs (in words): significantly and potently inhibited; also recorded: maximum inhibitory effect
  reduction of the uptake of ox-LDL by HUVECs: 80%
[3]
  effect on ox-LDL-mediated VCAM-1 mRNA upregulation: significantly reduced; also recorded: significantly inhibited
[2]
  reduction of monocyte adhesion: 35%
  effect on monocyte adhesion to HUVECs (in words): decreased the number of monocytes adherent to HUVECs; also recorded: markedly inhibited

From patent US11465972B2, “Inhibitors of oxidized low-density lipoprotein receptor 1 and methods of use thereof” (United States Government as represented by the Department …, priority 2015, dated 2022)
